Values joined by “and” are separate entries in the source; they are usually repeats but may differ in a detail not shown here. Equal entries are not always repeated. Where two headings read alike, the source gives them in different places.

Consider 18 compounds from US20100298314A1, “NOVEL JNK INHIBITORS” (Schering Corporation, priority 2006, published 2010).

Common to all, as to type: biochemical
The target of one assay is JNK1 (Homo sapiens, UniProt P45983). In words: JNK1 kinase DELFIA (phosphorylation of biotinylated GST-ATF2). As to the method: (§1) Before initiation of kinase reactions, compounds were pre-incubated with the enzyme for 10 minutes. Pre-incubation reactions contained 50 mM HEPES pH 7.3, 10 mM MgCl2, 1 mM DTT, 75 mM NaCl, 1 mM EDTA, 1 mM EGTA, 0.01% CHAPS, 2 nM JNK1, 6 ug/mL biotinylated GST-ATF2, 0.1 mg/ml BSA, 5% DMSO and 0-100 μM compound in a total volume of 40 μL. After a 10 minute room temperature pre-incubation, 10 μL of 35 μM ATP was added to start the reaction (final concentration of ATP=7 uM). Reactions were incubated at room temperature for 30 minutes. A small aliquot (10 uL) was taken and quenched by adding into 190 uL of DELFIA Assay buffer containing 100 mM EDTA. The amount of phosphate transferred to biotinylated GST-ATF2 was measured using the Dissociation Enhanced Lanthanide Fluorescence Immuno-assay (DELFIA) from Perkin Elmer according to manufacturers protocol. Briefly, biotinylated GST-ATF2 was captured on streptavidin coated plates for 1 hour, washed twice, then incubated for 1 hour with a 1:1000 dilution of rabbit-anti-phospho-ATF2 antibody and a 1:3500 dilution of Europium-labeled anti-rabbit secondary antibody. Free antibody was removed with six washes, Europium was dissociated from the antibody, and Europium fluorescence was measured using an excitation wavelength of 340 nm and an emission wavelength of 615 nm. JNK2 and JNK3 kinase reactions were carried out similarly, with the exception that the final concentration of ATP was 4 uM and 2 uM, respectively.
Sequence of JNK1 (P45983 whole entry, species assumed): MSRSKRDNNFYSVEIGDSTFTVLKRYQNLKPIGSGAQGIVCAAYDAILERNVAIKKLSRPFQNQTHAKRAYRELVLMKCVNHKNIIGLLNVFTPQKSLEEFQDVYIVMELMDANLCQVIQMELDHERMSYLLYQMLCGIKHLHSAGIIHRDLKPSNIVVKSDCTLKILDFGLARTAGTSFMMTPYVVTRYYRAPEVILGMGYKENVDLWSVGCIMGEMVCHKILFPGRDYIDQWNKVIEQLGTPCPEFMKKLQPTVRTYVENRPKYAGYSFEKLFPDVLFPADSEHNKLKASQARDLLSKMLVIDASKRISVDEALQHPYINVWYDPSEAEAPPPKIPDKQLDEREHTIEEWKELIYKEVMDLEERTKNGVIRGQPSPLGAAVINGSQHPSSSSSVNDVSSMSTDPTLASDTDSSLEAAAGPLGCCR

A further assay deals with JNK2 (Homo sapiens, UniProt P45984). In words: JNK2 kinase DELFIA (phosphorylation of biotinylated GST-ATF2). The settings on record: final ATP 4 uM, reported as range for a group. As to the method: as §1
Sequence of JNK2 (P45984 whole entry, species assumed): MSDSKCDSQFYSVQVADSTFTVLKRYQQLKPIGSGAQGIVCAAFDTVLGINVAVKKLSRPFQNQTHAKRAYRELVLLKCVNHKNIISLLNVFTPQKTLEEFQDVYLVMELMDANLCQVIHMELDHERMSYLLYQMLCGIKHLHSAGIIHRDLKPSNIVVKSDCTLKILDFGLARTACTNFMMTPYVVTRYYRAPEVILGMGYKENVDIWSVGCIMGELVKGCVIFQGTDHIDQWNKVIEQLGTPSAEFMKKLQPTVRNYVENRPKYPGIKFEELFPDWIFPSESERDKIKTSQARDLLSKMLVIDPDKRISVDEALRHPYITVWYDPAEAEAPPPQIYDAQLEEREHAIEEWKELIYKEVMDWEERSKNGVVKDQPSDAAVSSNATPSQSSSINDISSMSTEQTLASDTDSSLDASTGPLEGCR
For another assay, the target named is JNK3 (Homo sapiens, UniProt P53779). In words: JNK3 kinase DELFIA (phosphorylation of biotinylated GST-ATF2). To be noted: final ATP 2 uM. As for the experimental part: as §1
Sequence of JNK3 (P53779 whole entry, species assumed): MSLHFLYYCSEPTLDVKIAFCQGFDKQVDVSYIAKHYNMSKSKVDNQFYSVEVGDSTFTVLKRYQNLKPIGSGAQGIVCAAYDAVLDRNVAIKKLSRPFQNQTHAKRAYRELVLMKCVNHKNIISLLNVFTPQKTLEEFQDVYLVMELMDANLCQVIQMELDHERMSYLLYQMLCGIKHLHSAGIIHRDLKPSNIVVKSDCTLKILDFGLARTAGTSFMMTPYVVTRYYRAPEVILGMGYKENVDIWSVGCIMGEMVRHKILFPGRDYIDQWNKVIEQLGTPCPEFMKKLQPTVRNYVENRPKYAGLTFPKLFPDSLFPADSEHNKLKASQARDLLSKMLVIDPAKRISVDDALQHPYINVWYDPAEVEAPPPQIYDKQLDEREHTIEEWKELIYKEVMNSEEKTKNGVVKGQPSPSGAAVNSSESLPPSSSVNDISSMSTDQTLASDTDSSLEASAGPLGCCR
[1] abbreviates: DELFIA, 2 nM JNK1, final ATP 7 uM, 10 min pre-incubation, reported as range for a group.

Usually IC50 stands for the concentration needed to halve the response being measured. As for `CC(C)C[C@@H](CO)NC(=O)c1c(-c2ccsc2)nc2c(C(=O)NCc3ccc(N4CCN(C)CC4)nc3)cccn12` [Compound 299], the IC50 at JNK1 (setting [1]) is 6 to 100 nM; against JNK2, 4 to 46 nM; at JNK3 it was 9 to 50 nM.

As for `CC(C)C[C@@H](CO)NC(=O)c1c(-c2ccsc2)nc2c(C(=O)NCc3ccc(N4CCOCC4)nc3)cccn12` [Compound 300], the IC50 was 6 to 100 nM and 6 to 20 nM against JNK1 (setting [1]); 4 to 46 nM against JNK2; 9 to 50 nM on JNK3.

Consider `CC(C)C[C@@H](CO)NC(=O)c1c(-c2ccsc2)nc2c(C(=O)NCc3ccc(N4CCCCC4)nc3)cccn12` [Compound 301], for which the results for the IC50 against JNK1 (setting [1]), on JNK2 and against JNK3 were 6 to 100 nM, 4 to 46 nM and 9 to 50 nM, respectively.

Regarding `CC(C)C[C@@H](CO)NC(=O)c1c(-c2ccsc2)nc2c(C(=O)NCc3ccc(-c4cccnc4)nc3)cccn12` [Compound 306], the IC50 on JNK1 (setting [1]) is 6 to 100 nM and 6 to 20 nM; against JNK2 it was 4 to 46 nM; against JNK3 it was 9 to 50 nM.

As to `CC(C)C[C@@H](CO)NC(=O)c1c(-c2ccsc2)nc2c(C(=O)NCc3ccc(-c4ccncc4)nc3)cccn12` [Compound 307], the IC50 against JNK1 (setting [1]) is 6 to 100 nM and 6 to 20 nM; against JNK2, 4 to 46 nM; against JNK3, 9 to 50 nM.

With `Cc1ccn(-c2ccc(CNC(=O)c3cccn4c(C(=O)N[C@H](CO)CC(C)C)c(-c5ccsc5)nc34)cn2)n1` [Compound 323], the IC50 against JNK1 (setting [1]) fell in the range of 6 to 100 nM; on JNK2, 4 to 46 nM; on JNK3, 9 to 50 nM.

Turning to `CC(C)C[C@@H](CO)NC(=O)c1c(-c2ccsc2)nc2c(C(=O)NCc3ccc(N)nc3)cccn12` [Compound 327], the IC50 against JNK1 (setting [1]) fell in the range of 6 to 100 nM; against JNK2, 4 to 46 nM; against JNK3 it was 54 to 98 nM.

On to `CC(C)C[C@@H](CO)NC(=O)c1c(-c2ccccc2)nc2c(C(=O)NCc3ccc4nc(N)sc4c3)cccn12` [Compound 451], for which the IC50 against JNK1 (setting [1]) lay within 6 to 100 nM; at JNK2 it was 4 to 46 nM; on JNK3 it was 9 to 50 nM.

Turning to `CC(C)C[C@@H](CO)NC(=O)c1c(-c2ccc(F)cc2)nc2c(C(=O)NCc3ccc4nc(N)sc4c3)cccn12` [Compound 452], the results for the IC50 against JNK1 (setting [1]), against JNK2 and at JNK3 were 6 to 100 nM, 52 to 94 nM and 54 to 98 nM, respectively.

In the case of `CCc1nc2c(C(=O)NCc3ccc4nc(N)sc4c3)cccn2c1C(=O)N[C@H](CO)CC(C)C` [Compound 456], the IC50 at JNK1 (setting [1]) fell in the range of 6 to 100 nM; at JNK2, 4 to 46 nM; against JNK3, 9 to 50 nM.

As for `CCc1nc2c(C(=O)NCc3ccc4nc(C)n(C)c4c3)cccn2c1C(=O)N[C@H](CO)CC(C)C` [Compound 463], the half-inhibitory concentration (IC50) against JNK1 (setting [1]) lay within 6 to 20 nM; against JNK2, 4 to 46 nM; at JNK3, 9 to 50 nM.

With `CC(C)C[C@@H](CO)NC(=O)c1c(-c2ccccn2)nc2c(C(=O)NCc3ccc4nc(N)sc4c3)cccn12` [Compound 478], the IC50 against JNK1 (setting [1]) is 6 to 100 nM and 6 to 20 nM and 6 to 10 nM; at JNK1 (read-out: JNK 1 IC50), 10 nM; on JNK2, 4 to 46 nM; against JNK3, 9 to 50 nM.

With `Cc1nc2ccc(CNC(=O)c3cccn4c(C(=O)N[C@H](CO)CC(C)C)c(-c5ccccn5)nc34)cc2[nH]1` [Compound 479], the IC50 is 6 to 100 nM and 6 to 20 nM and 6 to 10 nM on JNK1 (setting [1]); 4 to 46 nM against JNK2; 9 to 50 nM against JNK3.

As to `Cc1nc2ccc(CNC(=O)c3cccn4c(C(=O)N[C@H](CO)CC(C)C)c(-c5ccccn5)nc34)cc2n1C` [Compound 483], the half-inhibitory concentration (IC50) on JNK1 (setting [1]) is 6 to 100 nM and 6 to 20 nM; at JNK1 (read-out: JNK 1 IC50) it was 11 nM; on JNK2, 4 to 46 nM; on JNK3, 9 to 50 nM.

As to `CC(C)C[C@@H](CO)NC(=O)c1c(-c2cccs2)nc2c(C(=O)NCc3ccc4nc(N)sc4c3)cccn12` [Compound 542], the half-maximal inhibitory concentration (IC50) against JNK1 (setting [1]) lay within 6 to 100 nM; on JNK2, 4 to 46 nM; against JNK3, 9 to 50 nM.

`CC(C)C[C@@H](CO)NC(=O)c1c(-c2cc(F)cc(F)c2)nc2c(C(=O)NCc3ccc4nc(N)sc4c3)cccn12` [Compound 544]: the IC50 at JNK1 (setting [1]) is 6 to 100 nM; on JNK1 (read-out: JNK 1 IC50), 23 nM; at JNK2, 4 to 46 nM; against JNK3, 9 to 50 nM.

For `Cc1nc2ccc(CNC(=O)c3cccn4c(C(=O)N[C@H](CO)CC(C)C)c(C)nc34)cc2[nH]1` [Compound 599], the IC50 on JNK1 (setting [1]) is 6 to 100 nM; on JNK2, 4 to 46 nM; against JNK3, 9 to 50 nM.

On to `Cc1cccc(-n2cc(CNC(=O)c3cccn4c(C(=O)N[C@H](CO)CC(C)C)cnc34)cn2)c1` [Compound 605], for which the IC50 on JNK1 (setting [1]) is 6 to 100 nM; on JNK1 (read-out: JNK 1 IC50), 21 nM; at JNK2, 4 to 46 nM; at JNK3 it was 9 to 50 nM.
